Measured values as given in ChEMBL document CHEMBL1201862, “PubChem BioAssay data set” (2004).
Where a name gives a salt, the structure may show the parent alone.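 These data come from cells grown in 96-well plates and exposed to compound for 48 hours at five concentrations. The concentration for 50% growth inhibition is given as GI50.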 Activity calls are given as the source filed them. Cut-off read from the data, not from the text of the source: active = GI50 up to about 1.1 µM and inactive = higher.

Legend:
Experiment in all cases: NCI anticancer screen, dose series, 48 h
[1] = test system: BT-549
[2] = test system: NCI-H460
[3] = test system: UACC-257
[4] = test system: SF-295
[5] = test system: NCI-H23
[6] = test system: TK-10
[7] = test system: MDA-N
[8] = test system: HT-29
[9] = test system: SK-MEL-28
[10] = test system: SW-620
[11] = test system: U-251
[12] = test system: SK-MEL-2
[13] = test system: MDA-MB-435
[14] = test system: UO-31
[15] = test system: COLO 205
[16] = test system: KM12
[17] = test system: HOP-62
[18] = test system: SR
[19] = test system: SF-268
[20] = test system: CCRF-CEM

For `O=S1(=O)NC2CCC3NS(=O)(=O)NC4CCC(N1)N4S(=O)(=O)N23` (stereo not given), the GI50 [1] was > 100 µM (inactive), the GI50 [2] was > 100 µM (inactive) and the GI50 [3] was > 100 µM (inactive). The GI50 [4] was > 100 µM (inactive), the GI50 [5] was > 100 µM (inactive) and the GI50 [6] was > 100 µM (inactive). The GI50 [7] was > 100 µM (inactive), the GI50 [8] was > 100 µM (inactive) and the GI50 [9] was > 100 µM (inactive). For the same molecule, the GI50 [10] was > 100 µM (inactive), the GI50 [11] was > 100 µM (inactive) and the GI50 [12] was > 100 µM (inactive). The GI50 [13] was > 100 µM (inactive), the GI50 [14] was > 100 µM (inactive) and the GI50 [15] was > 100 µM (inactive). For the same molecule, the GI50 [16] was > 100 µM (inactive), the GI50 [17] was > 100 µM (inactive) and the GI50 [18] was > 100 µM (inactive). The GI50 [19] was > 100 µM (inactive).
`Nc1nc2[nH]cc(CCc3ccc(C(=O)N[C@@H](CCC(=O)O)C(=O)O)cc3)c2c(=O)[nH]1` [PEMETREXED] was tested, and the GI50 [1] was > 100 µM (inactive), the GI50 [2] was 0.0359 µM (active) and the GI50 [3] was > 100 µM (inactive). The GI50 [4] was 0.418 µM (active), the GI50 [5] was > 100 µM (inactive) and the GI50 [6] was > 100 µM (inactive). The GI50 [7] was > 100 µM (inactive), the GI50 [8] was > 100 µM (inactive) and the GI50 [9] was > 100 µM (inactive). The GI50 [10] was > 100 µM (inactive), the GI50 [11] was > 100 µM (inactive) and the GI50 [12] was > 100 µM (inactive). The GI50 [13] was > 100 µM (inactive), the GI50 [15] was > 100 µM (inactive) and the GI50 [16] was > 100 µM (inactive). For the same molecule, the GI50 [17] was > 100 µM (inactive), the GI50 [18] was > 100 µM (inactive) and the GI50 [19] was 0.387 µM (active).
In the case of `O=C1C=CC2(O[C@H](c3ccccc3)[C@@H](c3ccccc3)O2)C(SC(=O)c2ccccc2)C1` (stereo not given in full), the GI50 [1] is reported as 0.433 µM (active), the GI50 [2] is reported as 3.02 µM (inactive) and the GI50 [3] is reported as 1.79 µM (inactive). For the same molecule, the GI50 [4] was 2.91 µM (inactive), the GI50 [5] was 1.63 µM (inactive) and the GI50 [6] was 1.68 µM (inactive). The GI50 [7] was 1.43 µM (inactive), the GI50 [8] was 2.03 µM (inactive) and the GI50 [9] was 1.79 µM (inactive). The GI50 [10] was 0.288 µM (active), the GI50 [11] was 1.56 µM (inactive) and the GI50 [12] was 1.72 µM (inactive). For the same molecule, the GI50 [13] was 2.02 µM (inactive), the GI50 [14] was 1.37 µM (inactive) and the GI50 [15] was 1.4 µM (inactive). For the same molecule, the GI50 [16] was 2.27 µM (inactive), the GI50 [17] was 1.38 µM (inactive) and the GI50 [18] was 0.256 µM (active). The GI50 [19] was 1.3 µM (inactive).
With `O=C(O)CN1C(=O)C(Cc2ccc(O)cc2)N=C(c2cccc(O)c2)c2ccccc21` (stereo not given) the GI50 [1] was > 100 µM (inactive), the GI50 [2] was > 100 µM (inactive) and the GI50 [3] was > 100 µM (inactive). For the same molecule, the GI50 [4] was > 100 µM (inactive), the GI50 [6] was > 100 µM (inactive) and the GI50 [7] was 11.5 µM (inactive). The GI50 [8] was > 100 µM (inactive), the GI50 [9] was > 100 µM (inactive) and the GI50 [10] was > 100 µM (inactive). For the same molecule, the GI50 [11] was > 100 µM (inactive), the GI50 [12] was > 100 µM (inactive) and the GI50 [13] was > 100 µM (inactive). The GI50 [14] was > 100 µM (inactive), the GI50 [16] was > 100 µM (inactive) and the GI50 [17] was > 100 µM (inactive). For the same molecule, the GI50 [18] was > 100 µM (inactive) and the GI50 [19] was > 100 µM (inactive).
`Cc1ccc(S(=O)(=O)Nn2c(S)c(C#N)c(-c3ccc(N(C)C)cc3)c(C#N)c2=O)cc1` was tested, and the GI50 [1] was 22.2 µM (inactive), the GI50 [2] was 15.2 µM (inactive) and the GI50 [3] was 51.4 µM (inactive). The GI50 [20] was 5.57 µM (inactive), the GI50 [4] was 34.2 µM (inactive) and the GI50 [5] was 19.1 µM (inactive). The GI50 [6] was 19.8 µM (inactive), the GI50 [7] was > 100 µM (inactive) and the GI50 [9] was 20.1 µM (inactive). The GI50 [10] was 18.1 µM (inactive), the GI50 [11] was 21.5 µM (inactive) and the GI50 [13] was 19.6 µM (inactive). The GI50 [14] was 16.9 µM (inactive), the GI50 [15] was 22 µM (inactive) and the GI50 [16] was 24.6 µM (inactive). The GI50 [18] was 23.7 µM (inactive).
For `Cc1cc(S(=O)(=O)N=C2NCC(C)(C)CN2)c(S)cc1Cl`, the GI50 [1] was 29.5 µM (inactive), the GI50 [2] was 27.3 µM (inactive) and the GI50 [3] was 42.3 µM (inactive). The GI50 [6] was 39 µM (inactive), the GI50 [7] was 22.2 µM (inactive) and the GI50 [8] was 19.3 µM (inactive). The GI50 [9] was 36.6 µM (inactive), the GI50 [10] was 17.9 µM (inactive) and the GI50 [11] was 23.7 µM (inactive). For the same molecule, the GI50 [12] was 21.3 µM (inactive), the GI50 [13] was 23.2 µM (inactive) and the GI50 [14] was 44.1 µM (inactive). For the same molecule, the GI50 [15] was 47.3 µM (inactive), the GI50 [16] was 30.8 µM (inactive) and the GI50 [17] was 52.6 µM (inactive). For the same molecule, the GI50 [18] was 37.9 µM (inactive) and the GI50 [19] was 73.3 µM (inactive).
In the case of `O=C(O)C(Oc1nc(S)nc(S)n1)(c1ccc(Cl)cc1)c1ccc(Cl)cc1`, the GI50 [1] is reported as > 100 µM (inactive), the GI50 [2] is reported as > 100 µM (inactive) and the GI50 [3] is reported as > 100 µM (inactive). For the same molecule, the GI50 [4] was > 100 µM (inactive), the GI50 [5] was > 100 µM (inactive) and the GI50 [6] was > 100 µM (inactive). For the same molecule, the GI50 [7] was > 100 µM (inactive), the GI50 [8] was > 100 µM (inactive) and the GI50 [9] was > 100 µM (inactive). The GI50 [10] was > 100 µM (inactive), the GI50 [11] was > 100 µM (inactive) and the GI50 [12] was > 100 µM (inactive). For the same molecule, the GI50 [13] was > 100 µM (inactive), the GI50 [14] was > 100 µM (inactive) and the GI50 [15] was > 100 µM (inactive). For the same molecule, the GI50 [16] was > 100 µM (inactive), the GI50 [17] was > 100 µM (inactive) and the GI50 [18] was > 100 µM (inactive). The GI50 [19] was > 100 µM (inactive).
With `CC(C)(C)OC(=O)NC(Cc1ccccc1)NC(=O)NC(=O)OCc1ccccc1` (stereo not given) the GI50 [1] was 54.5 µM (inactive), the GI50 [2] was 63.7 µM (inactive) and the GI50 [3] was 81.3 µM (inactive). The GI50 [4] was 36.6 µM (inactive), the GI50 [5] was 87.9 µM (inactive) and the GI50 [6] was 53.2 µM (inactive). The GI50 [7] was 64 µM (inactive), the GI50 [8] was > 100 µM (inactive) and the GI50 [9] was 38.9 µM (inactive). For the same molecule, the GI50 [10] was 59.6 µM (inactive), the GI50 [11] was 58.5 µM (inactive) and the GI50 [12] was 34.3 µM (inactive). For the same molecule, the GI50 [13] was > 100 µM (inactive), the GI50 [14] was > 100 µM (inactive) and the GI50 [16] was 59.8 µM (inactive). The GI50 [17] was 31.3 µM (inactive), the GI50 [18] was > 100 µM (inactive) and the GI50 [19] was 40.3 µM (inactive).
With `CN[C@@H]1[C@H](O)[C@H](NC)[C@H]2O[C@@]3(O)C(=O)C[C@@H](C)O[C@H]3O[C@@H]2[C@H]1O` [SPECTINOMYCIN SULFATE] the GI50 [1] was > 100 µM (inactive), the GI50 [2] was > 100 µM (inactive) and the GI50 [3] was > 100 µM (inactive). For the same molecule, the GI50 [20] was > 100 µM (inactive), the GI50 [4] was > 100 µM (inactive) and the GI50 [5] was > 100 µM (inactive). The GI50 [7] was > 100 µM (inactive), the GI50 [8] was > 100 µM (inactive) and the GI50 [9] was > 100 µM (inactive). For the same molecule, the GI50 [10] was > 100 µM (inactive), the GI50 [11] was > 100 µM (inactive) and the GI50 [13] was > 100 µM (inactive). The GI50 [14] was > 100 µM (inactive), the GI50 [15] was > 100 µM (inactive) and the GI50 [16] was > 100 µM (inactive). The GI50 [17] was > 100 µM (inactive), the GI50 [18] was > 100 µM (inactive) and the GI50 [19] was > 100 µM (inactive).
In the case of `CO[C@@H]1C[C@H]2N3CC[C@@]2(c2cc4c(cc2C3)OCO4)[C@H]2O[C@@H]12`, the GI50 [1] is reported as > 100 µM (inactive), the GI50 [2] is reported as > 100 µM (inactive) and the GI50 [3] is reported as > 100 µM (inactive). The GI50 [20] was > 100 µM (inactive), the GI50 [4] was > 100 µM (inactive) and the GI50 [5] was > 100 µM (inactive). For the same molecule, the GI50 [6] was > 100 µM (inactive), the GI50 [7] was > 100 µM (inactive) and the GI50 [8] was > 100 µM (inactive). The GI50 [9] was > 100 µM (inactive), the GI50 [10] was > 100 µM (inactive) and the GI50 [11] was > 100 µM (inactive). For the same molecule, the GI50 [12] was > 100 µM (inactive), the GI50 [13] was > 100 µM (inactive) and the GI50 [14] was > 100 µM (inactive). For the same molecule, the GI50 [15] was 0.851 µM (active), the GI50 [16] was > 100 µM (inactive) and the GI50 [17] was > 100 µM (inactive). The GI50 [19] was > 100 µM (inactive).
